Measurements published in patent US5126258A (priority 1988, dated 1992).

Tests used:
[1] = Spontaneous (uncatalyzed, background) hydrolysis; format: physicochemical; parameters: key to Spon. (spontaneous hydrolysis), symbol: --: No hydrolysis observed; settings: pH 8.0
Description: The practical range of pH for the assay is limited by the rapid spontaneous rate of hydrolysis of an ester Compound 5 above pH 8.0. Initially, the ester was used at a concentration that was about four-fold greater than that of the protein, and the mixture was incubated at pH 7.2 for 10 minutes. Any change in fluorescence above background was noted.
The lack of spectroscopic distinction between such esters and their hydrolysis products recommended a chromatographic analysis of the process. Referring to FIG. 3, a mixture of Compound 7 (5 uM) and the monoclonal antibody from hybridoma P3 6D4 (0.1 uM) in phosphate buffer (50 mM, pH 8.0) was analyzed over time by high performance liquid chromatography (HPLC). The accelerated hydrolysis of the ester was apparent from the decrease of its peak and the concurrent increase in two new peaks that correspond with the expected products. Under these conditions, the ester is completely consumed in 60-80 minutes during which time the background rate accounts for about 12 to 16 percent hydrolysis. The chromatographic profile is the same as that produced by treatment with hog liver esterase.
^c The rate constants were determined spectrophotometrically (at 245
nm) by measuring initial rates at five concentrations of ester.
(§1) ^1 Preliminary initial hydrolyses shown as the percentage of admixed
(§2) reactant ligand consumed for catalyzed and spontaneous hydrolyses. "--" =
(§3) No hydrolysis observed. "NT" = Not tried. All reactions were carried out
(§4) at pH 8.0 in a 50 mM phosphate buffer unless otherwise noted. Hydrolytic
(§5) percentages were determined by HPLC using a Hitachi model 655A12 liquid
(§6) chromatograph with a C18 Vydac 201TP54 column, except as noted below.
(§7) Mixtures of acetonitrile a nd water containing 0.1 percent trichloroaceti
(§8) acid [28:72-50:50 (v/v)] were used as elutant. Hydrolyses of Compounds 5
(§9) and 20 were assayed using fluorescence data.
(§10) ^5 Spontaneous hydrolytic percentages for the time period indicated.
Reaction kinetics were studied using three reactant ligands as substrates for monoclonal receptors 37G2 and 22F5. Data from initial rates were consistent with Michaelis-Menten reaction mechanism for a usual enzyme-substrate system. Initial rates were followed using at 271 nm using a U.V.-visible spectorphotometer for Compound 17, and a fluorescence spectrometer for Compounds 5 and 20, using an excitation wavelength of 355 nm and an emission wavelength of 455 nm for both compounds.

21G2 = experiment: Hydrolysis of reactant ligands by receptor 21G2; format: biochemical, mouse; parameters: key to hydrolysis by 21G2, symbol: --: No hydrolysis observed; settings: pH 8.0; 19: 2/5 uM, 21: 5/10 uM receptor/ligand
Description: as §1, §2, §3, §4, §5, §6, §7, §8, §9
(§11) ^2 Concentrations of receptor molecules (Rec.) and reactant ligands
(§12) (Lig.) in micromolar units, presuming a molecular weight of 150,000
(§13) daltons for each receptor molecule.
(§14) ^3 Reactant ligand (Lig.) used as substrate.
(§15) ^4 Time in hours that the reaction was permitted to take place.
as §10
(§16) ^6 Reaction carried out at pH 7.2 in a 50 mM phosphate buffer.

7E5 = experiment: Hydrolysis of reactant ligands by receptor 7E5; format: biochemical, mouse; parameters: key to hydrolysis by 7E5, symbol: --: No hydrolysis observed; settings: pH 8.0; 19: 2/5 uM, 21: 5/10 uM receptor/ligand
Description: as §1, §2, §3, §4, §5, §6, §7, §8, §9, §11, §12, §13, §14, §15, §10, §16

37G2 = experiment: Hydrolysis of reactant ligands by receptor 37G2; format: biochemical, mouse; parameters: key to hydrolysis by 37G2, symbol: --: No hydrolysis observed; settings: pH 8.0; 19: 2/5 uM, 21: 5/10 uM receptor/ligand
Description: as §1, §2, §3, §4, §5, §6, §7, §8, §9, §11, §12, §13, §14, §15, §10, §16

13E10 = experiment: Hydrolysis of reactant ligands by receptor 13E10; format: biochemical, mouse; parameters: key to hydrolysis by 13E10, symbol: --: No hydrolysis observed; settings: pH 8.0; 19: 2/5 uM, 21: 5/10 uM receptor/ligand
Description: as §1, §2, §3, §4, §5, §6, §7, §8, §9, §11, §12, §13, §14, §15, §10, §16

1209 = experiment: Hydrolysis of reactant ligands by receptor 12C9 (column head prints 1209); format: biochemical, mouse; parameters: key to hydrolysis by 1209, symbol: --: No hydrolysis observed; settings: pH 8.0; 19: 2/5 uM, 21: 5/10 uM receptor/ligand
Description: as §1, §2, §3, §4, §5, §6, §7, §8, §9, §11, §12, §13, §14, §15, §10, §16

44A2 = experiment: Hydrolysis of reactant ligands by receptor 44A2; format: biochemical, mouse; parameters: key to hydrolysis by 44A2, symbol: --: No hydrolysis observed; settings: pH 8.0; 19: 2/5 uM, 21: 5/10 uM receptor/ligand
Description: as §1, §2, §3, §4, §5, §6, §7, §8, §9, §11, §12, §13, §14, §15, §10, §16

17G8 = experiment: Hydrolysis of reactant ligands by receptor 17G8; format: biochemical, mouse; parameters: key to hydrolysis by 17G8, symbol: --: No hydrolysis observed; settings: pH 8.0; 19: 2/5 uM, 21: 5/10 uM receptor/ligand
Description: as §1, §2, §3, §4, §5, §6, §7, §8, §9, §11, §12, §13, §14, §15, §10, §16

22F5 = experiment: Hydrolysis of reactant ligands by receptor 22F5; format: biochemical, mouse; parameters: key to hydrolysis by 22F5, symbol: --: No hydrolysis observed; settings: pH 8.0; 19: 2/5 uM, 21: 5/10 uM receptor/ligand
Description: as §1, §2, §3, §4, §5, §6, §7, §8, §9, §11, §12, §13, §14, §15, §10, §16

[2] = test system: eight monoclonal receptors 21G2, 7E5, 37G2, 13E10, 12C9, 44A2, 17G8 and 22F5; experiment: Catalyzed hydrolysis of reactant ligands by the eight QPN1 monoclonal receptors, summary; format: biochemical, mouse; settings: pH 8.0
Description: Mice were hyperimmunized with the Compound 13-KLH conjugate over a three to four week time period. Sera were assayed in an ELISA using a Compound 13-BSA conjugate bound to microtiter plate wells as the solid-phase antigen. Cloned hybridomas were also screened using that ELISA assay.
Each of those catalyses could be inhibited by an appropriate analog-ligand. Thus, a relatively high percentage of induced monoclonal receptors was capable of catalyzing an esterolytic reaction. The reason for this relatively high percentage of useful receptors being induced is unknown, but could be due to the presence of phosphonamidate group nitrogen atom, as compared to a phosphonate oxygen atom, or to the quinoline nucleus of the analog-ligand. Those eight catalytic monoclonal receptors and the hybridomas that secrete them are identified by the laboratory designations "QPN1 7E5", "QPN1 12C9", "QPN1 13E10", "QPN1 17G8", "QPN1 21G2", "QPN1 22F5", "QPN1 37G2" and QPN1 44A2. The prefix "QPNI" is sometimes omitted herein when discussing these hybridomas and receptors.
Amide cleavage for Compounds 14 and 15 was assayed by analyzing for the production of free aminoquinaldine or aminonaphthalene by measuring the increase in the azo dye that results from derivatizing the free aminoquinaldine or aminonapthalene with a diazotization reagent.
Catalysis reactions were conducted by preparing a reaction admixture of 100 microliters (ul) total volume containing 5 micromolar (uM) monoclonal antibody, 50-75 uM amide reactant ligand substrate and a buffer described hereinafter. The buffer included in the above admixture varied depending upon the pH utilized as follows: pH 5, 10 […] sodium acetate, 10 mM sodium chloride; pH 7.2, 10 mM sodium phosphate, 0.15 molar (M) sodium chloride; pH 8.0; 50 mM sodium phosphate. The amide-containing substrates screened in this assay were added to the above admixture in 1 ul of a 100-fold concentrated stock solution of dimethyl formamide (DMF). Monoclonal antibody was added to the above admixture from a concentrated stock solution. The resulting admixture was placed into the well of a 96 well flat bottom microtiter plate (Costar, Cambridge, Mass.) and maintained in a moist vapor environment chamber at 23 degrees C. The production of aminoquinaldine or aminonaphthalene was then assayed as described below after 2,3,5, or 6 days.
The aminoquinaldine or aminonapthalene product produced by the catalyzed reaction was measured by first admixing 20 ul of 5M HCl, 80 ul acetone and 10 ul 0.5% (w/v) sodium nitrite to the reaction admixture to form a second admixture and maintaining that second admixture for 3 minutes at room temperature. Thereafter, 10 ul 2.5% (w/v) ammonium sulfamate was added to form a third admixture that was maintained for 2 minutes at room temperature. A still further 10 ul of 0.5% (w/v) N-(1-napthyl)ethylenediamine dihydrochloride was added to form a fourth admixture that was then maintained for 15 minutes at room temperature. Thereafter the resulting azo dye present in the fourth admixture was measured by absorbance spectroscopy at 540 nanometers (nm) for aminoquinaldine using a Model EL 309 Automated Microplate Reader (Bio-Tek Instruments, Winooski, Vt.).

hydrolysis by 21G2, symbol (21G2): --
hydrolysis by 7E5, symbol (7E5): --
hydrolysis by 37G2, symbol (37G2): --
hydrolysis by 13E10, symbol (13E10): --
hydrolysis by 1209, symbol 1209: --
hydrolysis by 44A2, symbol (44A2): --
hydrolysis by 17G8, symbol (17G8): --
hydrolysis by 22F5, symbol (22F5): --
receptors (of eight) that catalyzed hydrolysis of the compound [2]: none of the receptors
Compound: COC(=O)Cc1ccc(NC(C)=O)cc1 [Compound 19]
Spon. (spontaneous hydrolysis), symbol [1]: --
